Columns and labels:
[1] = system: Trypanosoma brucei rhodesiense; assay: Antiprotozoal activity against Trypanosoma brucei rhodesiense STIB900; format: functional, organism-based
[2] = Selectivity index, IC50 for L6 cells/ IC50 for Trypanosoma brucei rhodesience; format: functional
Plasmodium falciparum = assay: Antiprotozoal activity against chloroquine-, pyrimethamine-resistant Plasmodium falciparum K1; format: functional, organism-based
L6 = assay: Cytotoxicity against L6 cells; format: cell-based; conditions: Rattus norvegicus
[3] = Selectivity index, IC50 for L6 cells/IC50 for Plasmodium falciparum K1; format: functional
[4] = system: Trypanosoma brucei brucei; assay: Survival of NMRI mouse infected with Trypanosoma brucei brucei at 50 mg/kg, ip; format: functional; conditions: route intraperitoneal
[5] = system: Trypanosoma brucei brucei; assay: Survival of NMRI mouse infected with Trypanosoma brucei brucei at 0.5 mg/kg, ip; format: functional; conditions: route intraperitoneal

| Structure (SMILES) | IC50 [1] [µM] | Ratio IC50 [2] | IC50 (Plasmodium falciparum) [µM] | IC50 (L6) [µM] | Ratio IC50 [3] | Mean survival days [4] [days] | Mean survival days [5] [days] |
| --- | --- | --- | --- | --- | --- | --- | --- |
| O=C1CC2(N3CCCCC3)CC(c3ccccc3)C1C(c1ccccc1)C2 (centres undefined) | 8.12 | 5.78 | 3.95 | 46.9 | 11.88 |  |  |
| Clc1ccc(C2CC3(N4CCCCC4)CCNC2C(c2ccc(Cl)cc2)C3)cc1 (centres undefined) | 0.065 | 124.6 | 0.46 | 8.1 | 17.61 | 10.25 |  |
| COc1ccc(C2CC3(N4CCCCC4)CC(=O)C2C(c2ccc(OC)cc2)C3)cc1 (centres undefined) | 10 |  | 4.36 |  |  |  |  |
| OC1CC2(N3CCCC3)CC(c3ccc(Cl)cc3)C1C(c1ccc(Cl)cc1)C2 (centres undefined) | 0.37 | 9.7 | 0.53 | 3.59 | 6.77 |  |  |
| CN(C)C12CCNC(C(c3ccccc3)C1)C(c1ccccc1)C2 (centres undefined) |  | 181.3 |  |  | 388.6 |  |  |
| O/N=C1\CC2(N3CCCC3)CC(c3ccc(Cl)cc3)C1C(c1ccc(Cl)cc1)C2 (centres undefined) | 1.69 | 7.49 | 0.51 | 12.7 | 24.82 |  |  |
| COc1ccc(C2CC3(N(C)C)CC(=O)C2C(c2ccc(OC)cc2)C3)cc1 (centres undefined) | 5.01 | 10.47 | 5.43 | 52.4 | 9.66 |  |  |
| OC1CC2(N3CCCC3)CC(c3ccccc3)C1C(c1ccccc1)C2 (centres undefined) | 4.26 | 6.28 | 2.39 | 26.8 | 11.2 |  |  |
| O/N=C1/CC2(N3CCCC3)CC(c3ccc(Cl)cc3)C1C(c1ccc(Cl)cc1)C2 (centres undefined) | 1.51 | 3.85 | 0.19 | 5.81 | 27.26 |  |  |
| OC1CC2(N3CCCCC3)CC(c3ccc(Cl)cc3)C1C(c1ccc(Cl)cc1)C2 (centres undefined) | 0.44 | 26.34 | 0.37 | 11.6 | 31.32 |  |  |
| CN(C)C12CC(=O)NC(C(c3ccccc3)C1)C(c1ccccc1)C2 (centres undefined) | 38 | 7.09 | 1.4 | > 269 | 192.2 |  |  |
| CN(C)C12C/C(=N\O)C(C(c3ccccc3)C1)C(c1ccccc1)C2 (centres undefined) | 7.67 | 19.61 | 1.26 | 150 | 119.4 |  |  |
| COc1ccc(C2CC3(N4CCCCC4)CC(O)C2C(c2ccc(OC)cc2)C3)cc1 (centres undefined) | 14.2 | 3.13 | 4.98 | 44.6 | 8.95 |  |  |
| CN(C)C12CC(O)C(C(c3ccccc3)C1)C(c1ccccc1)C2 (centres undefined) | 2.95 | 44.91 | > 15.6 | 132 | 8.52 |  |  |
| COc1ccc(C2CC3(N4CCCC4)CC(=O)C2C(c2ccc(OC)cc2)C3)cc1 (centres undefined) | 3.7 | 11.34 | 3.37 | 41.9 | 12.44 |  |  |
| CN(C)C12C/C(=N\O)C(C(c3ccc(Cl)cc3)C1)C(c1ccc(Cl)cc1)C2 (centres undefined) | 1.5 | 5.21 | 1 | 7.82 | 7.82 |  |  |
| CN(C)C12CC(=O)C(C(c3ccccc3)C1)C(c1ccccc1)C2 (centres undefined) | 9.99 | 2.46 | > 10.6 | 24.6 | 2.32 |  |  |
| c1ccc(C2CC3(N4CCCC4)CCNC2C(c2ccccc2)C3)cc1 (centres undefined) |  | 103.8 |  |  | 215 |  |  |

| Structure (SMILES) | IC50 [1] [µM] | Ratio IC50 [2] | IC50 (Plasmodium falciparum) [µM] | IC50 (L6) [µM] | Ratio IC50 [3] | Mean survival days [4] [days] | Mean survival days [5] [days] |
| --- | --- | --- | --- | --- | --- | --- | --- |
| O=C1CC2(N3CCCC3)CC(c3ccccc3)C(N1)C(c1ccccc1)C2 (centres undefined) | 37.9 | 6.58 | 8.76 | > 250 | 28.43 |  |  |
| O/N=C1\CC2(N3CCCC3)CC(c3ccccc3)C1C(c1ccccc1)C2 (centres undefined) | 1.84 | 7.31 | 0.08 | 13.5 | 168.1 |  |  |
| OC1CC2(N3CCCCC3)CC(c3ccccc3)C1C(c1ccccc1)C2 (centres undefined) | 5.34 | 6.99 | 0.84 | 37.3 | 44.45 |  |  |
| Clc1ccc(C2CC3(N4CCCC4)CCNC2C(c2ccc(Cl)cc2)C3)cc1 (centres undefined) | 0.066 | 152.4 | 0.25 | 10.1 | 40.24 | 5.75 |  |
| O=C1CC2(N3CCCC3)CC(c3ccccc3)C1C(c1ccccc1)C2 (centres undefined) | 8.03 | 3.29 | 1.19 | 26.4 | 22.22 |  |  |
| CN(C)C12CC(O)C(C(c3ccc(Cl)cc3)C1)C(c1ccc(Cl)cc1)C2 (centres undefined) | 0.32 | 27.41 | 0.98 | 8.77 | 8.95 |  |  |
| O=C1CC2(N3CCCCC3)CC(c3ccccc3)C(N1)C(c1ccccc1)C2 (centres undefined) | 36.6 | 6.38 | 13 | 234 | 17.97 |  |  |
| O/N=C1\CC2(N3CCCCC3)CC(c3ccc(Cl)cc3)C1C(c1ccc(Cl)cc1)C2 (centres undefined) | 3.34 | 2.62 | 0.5 | 8.75 | 17.5 |  |  |
| O/N=C1\CC2(N3CCCCC3)CC(c3ccccc3)C1C(c1ccccc1)C2 (centres undefined) | 3.66 | 6.6 | 0.15 | 24.2 | 161.1 |  |  |
| CN(C)C12CCNC(C(c3ccc(Cl)cc3)C1)C(c1ccc(Cl)cc1)C2 (centres undefined) | 0.061 | 143.3 | 0.41 | 8.74 | 21.32 | 9 |  |
| c1ccc(C2CC3(N4CCCCC4)CCNC2C(c2ccccc2)C3)cc1 (centres undefined) |  | 13.66 |  |  | 140.22 |  |  |
| COc1ccc(C2CC3(N4CCCC4)CC(O)C2C(c2ccc(OC)cc2)C3)cc1 (centres undefined) | 7.61 | 2.35 | 2.72 | 17.9 | 6.58 |  |  |
| COc1ccc(C2CC3(N(C)C)CC(O)C2C(c2ccc(OC)cc2)C3)cc1 (centres undefined) | 2.15 | 29.5 | 5.5 | 63.4 | 11.53 |  |  |
| C[C@@H]1CC[C@H]2[C@@H](C)C(=O)O[C@@H]3O[C@@]4(C)CC[C@@H]1[C@]32OO4 [ARTEMISININ] |  |  | 0.0064 |  | 70390 |  |  |
| OC(c1cc(C(F)(F)F)nc2c(C(F)(F)F)cccc12)C1CCCCN1 (centres undefined) [MEFLOQUINE] |  |  |  | 11.4 |  |  |  |
| Nc1nc(N)nc(Nc2ccc([As]3SCC(CO)S3)cc2)n1 (centres undefined) [MELARSOPROL] |  | 1995 |  |  |  |  | 42.5 |
| Cc1ccc(C(=O)Nc2ccc(S(=O)(=O)O)c3cc(S(=O)(=O)O)cc(S(=O)(=O)O)c23)cc1NC(=O)c1cccc(NC(=O)Nc2cccc(C(=O)Nc3cc(C(=O)Nc4ccc(S(=O)(=O)O)c5cc(S(=O)(=O)O)cc(S(=O)(=O)O)c45)ccc3C)c2)c1 [SURAMIN] | 0.0075 | 629933 |  | 4720 |  |  |  |

From ChEMBL document CHEMBL1137288, “Antiprotozoal activities of new bis-chlorophenyl derivatives of bicyclic octanes and aza-nonanes” (Bioorg Med Chem Lett, 2006)
